≈ marks a conversion by molar mass, not a printed value. Where two headings read alike, the source gives them in different places. Marks after values point to notes of the source that are not given here.
Assays:
E. coli ATCC 25922 [1] = test: MIC by serial dilutions in broth (visible growth); type: cell-based;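 further: broth tubes inoculated to about 5×10^5 CFU/ml, incubated at 35 °C for 16-24 h, growth judged by transmitted light versus an untreated inoculum reference tube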
Procedure: (§4) The minimum inhibitory concentration (MIC) and minimum bactericidal concentration (MBC) of the antibacterial composition enriched for the light isotope zinc ^64Zne was evaluated in the experiment. […] S. aureus ATCC 25923, E. coli ATCC 25922 and P. aeruginosa ATCC 27853 were used as test cultures.
(§5) The studies were carried out using the method of serial dilutions in broth. To determine sensitivity of microorganisms to the antibacterial composition, 0.5 ml of broth was placed into each tube. The number of tubes was determined based on the desired number of dilutions and was increased by one for the “negative” control (no test composition). Series of two-fold serial dilutions of the test variants of the antibacterial composition were used and concentrations ranging from 450 mcg ^64Zne/ml to 0.000107 mcg ^64Zne/ml were obtained.
(§6) Reference test strains of S. aureus ATCC 25923, E. coli ATCC 25922 and P. aeruginosa ATCC 27853 were incubated in Mueller-Hinton liquid broth at 37° C. for 24 hours. Standard bacterial suspension equivalent to 0.5 McFarland standard diluted 100-fold with the broth was used for the inoculation of the tubes after which the concentration of microorganism in it was approximately 10^6 CFU/ml.
(§7) 0.5 ml of inoculum was added to each tube containing 0.5 ml of the appropriate dilution of a solution of the ^64Zn-enriched salt of interest. […] The final concentration of the microorganism in each tube was approximately 5×10^5 CFU/ml.
(§8) The tubes were incubated at 35° C. in air for 16-20 or 20-24 hours (depending on the bacterial strain).
(§9) To determine the presence of microorganism growth the test tubes with inoculum were viewed under transmitted light. Transmitted light was measured by spectrophotometry. The growth of culture in the presence of antibacterial compositions based on ^64Zne was compared with the reference test tube (“negative” control), containing the original inoculum and stored in the refrigerator. The MIC was determined as the lowest concentration of ^64Zne that inhibits visible growth of the microorganism. Both gram-positive (S. aureus) and gram-negative bacteria (P. aeruginosa, E. coli) were used in the experiments described below.
(§10) That is, ^64Zne in the form of a salt was compared with a composition that contains zinc with a natural distribution of isotopes. […] Relevant samples containing salt of natural zinc with EDDA and natural zinc sulfate were used for the comparison.
(§11) The following commercial antibacterial medications were used for the study: azithromycin and ceftriaxone and norfloxacin. The initial concentration of 3000 mcg/ml was used for the samples of all the above compounds. […] Serial dilutions of the above antibacterial compounds were also prepared in the same way as for the antibacterial composition of the invention. The same pathogenic strains of S. aureus ATCC 25923, E. coli ATCC 25922, P. aeruginosa ATCC 27853 were used for the study.

P. aeruginosa ATCC 27853 [2] = test: MIC by serial dilutions in broth (visible growth)
Procedure: as §4, §5, §6, §7, §8, §9, §10, §11

S. aureus ATCC 25923 [3] = test: MIC by serial dilutions in broth (visible growth); type: cell-based;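 further: broth tubes inoculated at about 5×10^5 CFU/ml, incubated 16-24 h at 35 °C in air, growth judged by transmitted light against an unexposed refrigerated inoculum tube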
Procedure: as §4, §5, §6, §7, §8, §9, §10, §11

S. aureus ATCC 25923 [4] = test: MBC by plating tube contents on Mueller-Hinton medium; type: cell-based
Procedure: (§1) To evaluate the bactericidal action of the antibacterial composition based on light isotope ^64Zne the minimum bactericidal concentration (MBC) was determined by plating out 0.1 ml of the contents of each tube containing the antibacterial composition on Mueller-Hinton medium. The incubation was at 37° C. for 24 h.
(§2) The MBC of the test samples was determined as the lowest concentration at which there was no growth on Mueller-Hinton agar medium.

P. aeruginosa ATCC 27853 [5] = test: as above; type: cell-based
Procedure: as §1, §2

E. coli ATCC 25922 [6] = test: as above; type: cell-based
Procedure: as §1, §2

P. aeruginosa ATCC 27859 = test: MIC of deuterium-depleted water by serial dilutions in normal saline solution; type: cell-based; settings: basic solution, 10^4, 10^6, 10^8 cells/ml; text names ATCC 27853
Procedure: (§3) The minimum inhibitory concentration (MIC) of deuterium-depleted water was determined by serial dilutions in normal saline solution. Reference strains of E. coli ATCC 25922 and P. aeruginosa ATCC 27859 were used as test cultures. For inoculation, microbial suspension equivalent to a 0.5 standard McFarland (1.5×10^8 cells/ml) was used. Then the dilutions with normal saline solution were prepared so that the concentration of microorganisms reached approximately 10^4 cells/ml. The test cultures were previously grown for 24 hours at 37° C. One-tenth of a milliliter (0.1 ml) of the suspension was placed into each test tube containing 4 ml of the medium with the investigative active substance at a certain concentration (without deuterium-depleted water in the control). The tubes were incubated in an incubator at 37° C. for 24 hours. After incubation the inoculum from each tube was plated on Mueller-Hinton agar medium for P. aeruginosa and on Endo for E. coli and incubated at 37° C. for another 24 hours. The results were evaluated based on the presence of bacterial growth (turbidity) in the nutrient broth and, if necessary, by using other additional known bacteriological tests. The first few tubes remained transparent due to the antimicrobial effect of the study substance. […] The results are shown in the table below and illustrated in FIGS. 5b and 5c.

E. coli ATCC 25922 [7] = test: as above; type: cell-based; settings: basic solution, 10^4, 10^6, 10^8 cells/ml
Procedure: as §3

[8] = Table 7, ^64Zne vs natural zinc
[9] = concentration of ^64Zne, Tables 1-5
[10] = Table 8, ^64Zne vs natural zinc
[11] = Escherichia coli, ATCC25922, Table 9, commercial antibacterial agents, read-out: MIC
[12] = Pseudomonas aeruginosa, ATCC27853
[13] = Staphylococcus aureus, ATCC25923, Table 9, commercial antibacterial agents, read-out: MIC
[14] = Staphylococcus aureus, ATCC25923, Table 10, commercial antibacterial agents, read-out: MBC
[15] = Pseudomonas aeruginosa, ATCC27853, Table 10, commercial antibacterial agents, read-out: MBC
[16] = Escherichia coli, ATCC25922, Table 10, commercial antibacterial agents, read-out: MBC

`O=S(=O)([O-])[O-].[64Zn+2]` [^64Zne sulfate] was tested, and the visible growth (E. coli ATCC 25922 [1]) was “− and +”, the MIC (E. coli ATCC 25922 [1]; [8]) was 0.0916 zinc/ml and the visible growth (E. coli ATCC 25922 [1]; ^64Zne 0.00036 mcg/ml) was “+”. The visible growth (E. coli ATCC 25922 [1]; ^64Zne 0.00072 mcg/ml) was “+”, the visible growth (E. coli ATCC 25922 [1]; ^64Zne 0.0014 mcg/ml) was “+” and the visible growth (E. coli ATCC 25922 [1]; ^64Zne 0.0029 mcg/ml) was “+”. For the same compound, the visible growth (E. coli ATCC 25922 [1]; ^64Zne 0.011 mcg/ml) was “+”, the visible growth (E. coli ATCC 25922 [1]; ^64Zne 0.023 mcg/ml) was “+” and the visible growth (E. coli ATCC 25922 [1]; ^64Zne 0.046 mcg/ml) was “+”. The visible growth (E. coli ATCC 25922 [1]; ^64Zne 0.092 mcg/ml) was “−”, the visible growth (E. coli ATCC 25922 [1]; ^64Zne 0.37 mcg/ml) was “−” and the visible growth (E. coli ATCC 25922 [1]; ^64Zne 0.73 mcg/ml) was “−”. The visible growth (E. coli ATCC 25922 [1]; ^64Zne 1.46 mcg/ml) was “−”, the visible growth (E. coli ATCC 25922 [1]; ^64Zne 2.93 mcg/ml) was “−” and the visible growth (E. coli ATCC 25922 [1]; ^64Zne 5.86 mcg/ml) was “−”. The visible growth (E. coli ATCC 25922 [1]; ^64Zne 11.72 mcg/ml) was “−”, the visible growth (E. coli ATCC 25922 [1]; ^64Zne 23.44 mcg/ml) was “−” and the visible growth (E. coli ATCC 25922 [1]; ^64Zne 46.88 mcg/ml) was “−”. For the same compound, the visible growth (E. coli ATCC 25922 [1]; ^64Zne 93.75 mcg/ml) was “−”, the visible growth (E. coli ATCC 25922 [1]; ^64Zne 187.5 mcg/ml) was “−” and the visible growth (E. coli ATCC 25922 [1]; ^64Zne 375 mcg/ml) was “−”. For the same compound, the visible growth (E. coli ATCC 25922 [1]; ^64Zne 750 mcg/ml) was “−”, the visible growth (E. coli ATCC 25922 [1]; ^64Zne 1500 mcg/ml) was “−” and the MIC (E. coli ATCC 25922 [1]; [9]) was 0.0916 µg/mL. For the same compound, the MIC (P. aeruginosa ATCC 27853 [2]; [8]) was 46.875 zinc/ml, the MIC (P. aeruginosa ATCC 27853 [2]; [9]) was 46.875 µg/mL and the visible growth (S. aureus ATCC 25923 [3]) was “− and +”. For the same compound, the MIC (S. aureus ATCC 25923 [3]; [8]) was 0.366 zinc/ml, the visible growth (S. aureus ATCC 25923 [3]; ^64Zne 0.00036 mcg/ml) was “+” and the visible growth (S. aureus ATCC 25923 [3]; ^64Zne 0.00072 mcg/ml) was “+”. For the same compound, the visible growth (S. aureus ATCC 25923 [3]; ^64Zne 0.0014 mcg/ml) was “+”, the visible growth (S. aureus ATCC 25923 [3]; ^64Zne 0.0029 mcg/ml) was “+” and the visible growth (S. aureus ATCC 25923 [3]; ^64Zne 0.011 mcg/ml) was “+”. For the same compound, the visible growth (S. aureus ATCC 25923 [3]; ^64Zne 0.023 mcg/ml) was “+”, the visible growth (S. aureus ATCC 25923 [3]; ^64Zne 0.046 mcg/ml) was “+” and the visible growth (S. aureus ATCC 25923 [3]; ^64Zne 0.37 mcg/ml) was “−”. The visible growth (S. aureus ATCC 25923 [3]; ^64Zne 1.46 mcg/ml) was “−”, the visible growth (S. aureus ATCC 25923 [3]; ^64Zne 2.93 mcg/ml) was “−” and the visible growth (S. aureus ATCC 25923 [3]; ^64Zne 5.86 mcg/ml) was “−”. For the same compound, the visible growth (S. aureus ATCC 25923 [3]; ^64Zne 11.72 mcg/ml) was “−”, the visible growth (S. aureus ATCC 25923 [3]; ^64Zne 23.44 mcg/ml) was “−” and the visible growth (S. aureus ATCC 25923 [3]; ^64Zne 46.88 mcg/ml) was “−”. The visible growth (S. aureus ATCC 25923 [3]; ^64Zne 93.75 mcg/ml) was “−”, the visible growth (S. aureus ATCC 25923 [3]; ^64Zne 187.5 mcg/ml) was “−” and the visible growth (S. aureus ATCC 25923 [3]; ^64Zne 375 mcg/ml) was “−”. The visible growth (S. aureus ATCC 25923 [3]; ^64Zne 750 mcg/ml) was “−”, the MIC (S. aureus ATCC 25923 [3]; [9]) was 0.366 µg/mL and the MBC (S. aureus ATCC 25923 [4]; Table 6) was 0.37* mcg ^64Zne/ml. The MBC (S. aureus ATCC 25923 [4]; [10]) was 0.3662 mcg zinc/ml, the “bactericidal activity (in words)” value (P. aeruginosa ATCC 27853 [5]) was “satisfactory bactericidal activity” and the MBC (P. aeruginosa ATCC 27853 [5]; Table 6) was 375 mcg ^64Zne/ml. The MBC (P. aeruginosa ATCC 27853 [5]; [10]) was 375 mcg zinc/ml, the MBC (E. coli ATCC 25922 [6]; Table 6) was 1.46* mcg ^64Zne/ml and the MBC (E. coli ATCC 25922 [6]; [10]) was 1.4648 mcg zinc/ml.
`CC[C@H]1OC(=O)[C@H](C)[C@@H](O[C@H]2C[C@@](C)(OC)[C@@H](O)[C@H](C)O2)[C@H](C)[C@@H](O[C@@H]2O[C@H](C)C[C@H](N(C)C)[C@H]2O)[C@](C)(O)C[C@@H](C)CN(C)[C@H](C)[C@@H](O)[C@]1(C)O` [azithromycin, reference compound] showed an MIC (E. coli ATCC 25922 [1]; [11]) of 1500 µg/mL (≈ 2000 µM), an MIC (P. aeruginosa ATCC 27853 [2]; [12]) of 1500 µg/mL (≈ 2000 µM) and an MIC (S. aureus ATCC 25923 [3]; [13]) of 188 µg/mL (≈ 250 µM). It also gave an MBC (S. aureus ATCC 25923 [4]; [14]) of under 1500 µg/mL, an MBC (P. aeruginosa ATCC 27853 [5]; [15]) of under 1500 µg/mL and an MBC (E. coli ATCC 25922 [6]; [16]) of under 1500 µg/mL.
Compound `CO/N=C(\C(=O)N[C@@H]1C(=O)N2C(C(=O)O)=C(CSc3nc(=O)c(=O)[nH]n3C)CS[C@H]12)c1csc(N)n1` [ceftriaxone, reference compound] has an MIC (E. coli ATCC 25922 [1]; [11]) of 2.93 µg/mL (≈ 5.28 µM), an MIC (P. aeruginosa ATCC 27853 [2]; [12]) of 750 µg/mL (≈ 1350 µM) and an MIC (S. aureus ATCC 25923 [3]; [13]) of 11.7 µg/mL (≈ 21.1 µM). It also gave an MBC (S. aureus ATCC 25923 [4]; [14]) of 375 µg/mL (≈ 676 µM), an MBC (P. aeruginosa ATCC 27853 [5]; [15]) of under 1500 µg/mL and an MBC (E. coli ATCC 25922 [6]; [16]) of 11.7 µg/mL (≈ 21.1 µM).
`O` [deuterium-depleted water] was tested, and the “bactericidal effect (in words)” value (P. aeruginosa ATCC 27859) was “bactericidal effect” and the “bactericidal effect (in words)” value (E. coli ATCC 25922 [7]) was “bactericidal effect”.
Compound `CCn1cc(C(=O)O)c(=O)c2cc(F)c(N3CCNCC3)cc21` [norfloxacin, reference compound] has an MIC (E. coli ATCC 25922 [1]; [11]) of 23.4 µg/mL (≈ 73.4 µM), an MIC (P. aeruginosa ATCC 27853 [2]; [12]) of 188 µg/mL (≈ 587 µM) and an MIC (S. aureus ATCC 25923 [3]; [13]) of 11.7 µg/mL (≈ 36.7 µM). The MBC (S. aureus ATCC 25923 [4]; [14]) was under 1500 µg/mL, the MBC (P. aeruginosa ATCC 27853 [5]; [15]) was under 1500 µg/mL and the MBC (E. coli ATCC 25922 [6]; [16]) was under 1500 µg/mL.
